Laboratory results published in patent US20240059698A1 (Accutar Biotechnology Inc., priority 2022, published 2024).

Columns and labels:
Type in all cases: cell-based
HCC827 cells = assay: Cell growth inhibition (CellTiter-Glo), HCC827; conditions: Homo sapiens, 72 h, 3 days
Description: (§1) 2. Cell Growth Inhibition for HCC827, HCC827-SVD, HCC827-ASV, HCC827-YVMA, and A431.
(§2) HCC827(ATCC), HCC827-SVD, HCC827-ASV, and HCC827-YVMA cells were seeded in 96-well plates at 5000 cells/well in 90 μL of RPMI growth medium containing 10% FBS and 1% Penicillin Streptomycin. A431 (ATCC) cells were seeded in 96-well plates at 5000 cells/well in 90 μL of DMEM growth medium containing 10% FBS and 1% Penicillin Streptomycin. Cells were incubated at 37° C. overnight and then administered with 10 μL 10× test compounds prepared in the growth medium at various concentrations. After administration of the compounds, cells were incubated at 37° C. for 3 days. Before the CellTiter-Glo assay, the plates were equilibrated at room temperature for approximately 30 minutes. 100 ul of CellTiter-Glo reagent (Promega) was added to each well. The plates were then incubated at room temperature for 10 minutes and luminescence was recorded by the EnSight® multimode plate reader (PerkinElmer). Table 7 listed selected compounds in cellular growth assay.

[1] = test system: HCC827-SVD cells (human EGFR exon 20 insertion mutant D770_N771insSVD); assay: Cell growth inhibition (CellTiter-Glo), HCC827-SVD; conditions: 72 h, 3 days
How it was run: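 Growth read by CellTiter-Glo luminescence after 3-day compound exposure at 37 °C. Engineered clonal HCC827 line (native EGFR deleted by CRISPR, mutant EGFR re-expressed) plated at 5000 cells/well in 10% FBS RPMI the night before dosing.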

[2] = test system: HCC827-YVMA cells (human ERBB2 exon20 insertion mutant A775_G776ins YVMA); assay: Cell growth inhibition (CellTiter-Glo), HCC827-YVMA; conditions: 72 h, HCC827-YVMA cells, 3 days, CellTiter-Glo, read-out: Cell growth inhibition, GI50 (nM) HCC827-YVMA
How it was run: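 Growth in RPMI with 10% FBS was measured by CellTiter-Glo luminescence after 3 days at 37 °C with test compounds across a concentration range. The single-clone HCC827 lines carry a lentiviral YVMA (ERBB2) or ASV (EGFR) exon 20 insertion, with endogenous EGFR removed via sgRNA/Cas9.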

A431 cells = assay: Cell growth inhibition (CellTiter-Glo), A431; conditions: Homo sapiens, A-431, 72 h, 3 days
Description: as §1, §2

In the case of `C=CC(=O)N1CCC(c2c[nH]c3ncnc(Nc4ccc(Oc5ccnc(N6CCOC(C)C6)c5)cc4F)c23)CC1` (stereo in doubt) [Compound 141, (S)-1-(4-(4-((2-fluoro-4-((2-(2-methylmorpholino)pyridin-4-yl)oxy)phenyl)amino)-7H-pyrrolo[2,3-d]pyrimidin-5-yl)piperidin-1-yl)prop-2-en-1-one], the GI50 (HCC827 cells) is reported as over 1000 nM, the GI50 [1] is reported as 50 to 200 nM and the GI50 [2] is reported as 50 to 200 nM. For the same molecule, the GI50 (A431 cells) was over 1000 nM.

In the case of `C=CC(=O)N1CCC(c2c[nH]c3ncnc(Nc4ccc(OCc5cc(C)ccn5)c(Cl)c4)c23)CC1` [Compound 110, 1-(4-(4-((3-chloro-4-((4-methylpyridin-2-yl)methoxy)phenyl)amino)-7H-pyrrolo[2,3-d]pyrimidin-5-yl)piperidin-1-yl)prop-2-en-1-one], the GI50 (HCC827 cells) is reported as under 50 nM, the GI50 [1] is reported as under 50 nM and the GI50 [2] is reported as under 50 nM. For the same molecule, the GI50 (A431 cells) was 200 to 1000 nM.

With `C=CC(=O)N1CCC(c2c[nH]c3ncnc(Nc4ccc(OCc5ccccn5)c(F)c4)c23)CC1` [Compound 111, 1-(4-(4-((3-fluoro-4-(pyridin-2-ylmethoxy)phenyl)amino)-7H-pyrrolo[2,3-d]pyrimidin-5-yl)piperidin-1-yl)prop-2-en-1-one] the GI50 (HCC827 cells) was under 50 nM, the GI50 [1] was under 50 nM and the GI50 [2] was under 50 nM. It also gave a GI50 (A431 cells) of 50 to 200 nM.

Molecule `C=CC(=O)N1CCC(c2c[nH]c3ncnc(Nc4ccc(Oc5ccnc(-n6ccc(OC(C)C)n6)c5)cc4F)c23)CC1` [Compound 115, 1-(4-(4-((2-fluoro-4-((2-(3-isopropoxy-1H-pyrazol-1-yl)pyridin-4-yl)oxy)phenyl)amino)-7H-pyrrolo[2,3-d]pyrimidin-5-yl)piperidin-1-yl)prop-2-en-1-one] has a GI50 (HCC827 cells) of 50 to 200 nM, a GI50 [1] of 50 to 200 nM and a GI50 [2] of 50 to 200 nM.

In the case of `C=CC(=O)N1CCC(c2c[nH]c3ncnc(Nc4ccc(OCc5cc(Cl)ccn5)c(Cl)c4)c23)CC1` [Compound 117, 1-(4-(4-((3-chloro-4-((4-chloropyridin-2-yl)methoxy)phenyl)amino)-7H-pyrrolo[2,3-d]pyrimidin-5-yl)piperidin-1-yl)prop-2-en-1-one], the GI50 (HCC827 cells) is reported as under 50 nM, the GI50 [1] is reported as under 50 nM and the GI50 [2] is reported as under 50 nM.

`C=CC(=O)N1CCC(c2c[nH]c3ncnc(Nc4ccc(OCc5ccc(F)cn5)c(Cl)c4)c23)CC1` [Compound 118, 1-(4-(4-((3-chloro-4-((5-fluoropyridin-2-yl)methoxy)phenyl)amino)-7H-pyrrolo[2,3-d]pyrimidin-5-yl)piperidin-1-yl)prop-2-en-1-one] gave a GI50 (HCC827 cells) of under 50 nM, a GI50 [1] of under 50 nM and a GI50 [2] of under 50 nM.

Molecule `C=CC(=O)N1CCC(c2c[nH]c3ncnc(Nc4ccc(OCc5cccnn5)c(Cl)c4)c23)CC1` [Compound 120, 1-[4-[4-[3-chloro-4-(pyridazin-3-ylmethoxy)anilino]-7H-pyrrolo[2,3-d]pyrimidin-5-yl]-1-piperidyl]prop-2-en-1-one] has a GI50 (HCC827 cells) of under 50 nM, a GI50 [1] of under 50 nM and a GI50 [2] of under 50 nM.

`C=CC(=O)N1CCC(c2c[nH]c3ncnc(Nc4ccc(OCc5cccnc5)c(Cl)c4)c23)CC1` [Compound 121, 1-(4-(4-((3-chloro-4-(pyridin-3-ylmethoxy)phenyl)amino)-7H-pyrrolo[2,3-d]pyrimidin-5-yl)piperidin-1-yl)prop-2-en-1-one] showed a GI50 (HCC827 cells) of under 50 nM, a GI50 [1] of under 50 nM and a GI50 [2] of under 50 nM.

`C=CC(=O)N1CCC(c2c[nH]c3ncnc(Nc4ccc(Oc5ccnc(N6CCC(O)(C(F)(F)F)CC6)c5)cc4F)c23)CC1` [Compound 122, 1-(4-(4-((2-fluoro-4-((2-(4-hydroxy-4-(trifluoromethyl)piperidin-1-yl)pyridin-4-yl)oxy)phenyl)amino)-7H-pyrrolo[2,3-d]pyrimidin-5-yl)piperidin-1-yl)prop-2-en-1-one] showed a GI50 (HCC827 cells) of over 1000 nM, a GI50 [1] of 200 to 1000 nM and a GI50 [2] of 200 to 1000 nM.

`C=CC(=O)N1CCC(c2c[nH]c3ncnc(Nc4ccc(Oc5ccnc(-c6cnn(C)c6)c5)cc4F)c23)CC1` [Compound 125, 1-(4-(4-((2-fluoro-4-((2-(1-methyl-1H-pyrazol-4-yl)pyridin-4-yl)oxy)phenyl)amino)-7H-pyrrolo[2,3-d]pyrimidin-5-yl)piperidin-1-yl)prop-2-en-1-one] showed a GI50 (HCC827 cells) of over 1000 nM, a GI50 [1] of 200 to 1000 nM and a GI50 [2] of 200 to 1000 nM.

In the case of `C=CC(=O)N1CCC(c2c[nH]c3ncnc(Nc4ccc(OCc5ccc(Cl)cn5)c(Cl)c4)c23)CC1` [Compound 126, 1-(4-(4-((3-chloro-4-((5-chloropyridin-2-yl)methoxy)phenyl)amino)-7H-pyrrolo[2,3-d]pyrimidin-5-yl)piperidin-1-yl)prop-2-en-1-one], the GI50 (HCC827 cells) is reported as under 50 nM, the GI50 [1] is reported as under 50 nM and the GI50 [2] is reported as under 50 nM.

Work on `C=CC(=O)N1CCC(c2c[nH]c3ncnc(Nc4ccc(OCc5ccncc5)c(Cl)c4)c23)CC1` [Compound 127, 1-(4-(4-((3-chloro-4-(pyridin-4-ylmethoxy)phenyl)amino)-7H-pyrrolo[2,3-d]pyrimidin-5-yl)piperidin-1-yl)prop-2-en-1-one] yielded a GI50 (HCC827 cells) of 50 to 200 nM, a GI50 [1] of under 50 nM and a GI50 [2] of under 50 nM.

For `C=CC(=O)N1CCC(c2c[nH]c3ncnc(Nc4ccc(OCc5ncccn5)c(Cl)c4)c23)CC1` [Compound 128, 1-(4-(4-((3-chloro-4-(pyrimidin-2-ylmethoxy)phenyl)amino)-7H-pyrrolo[2,3-d]pyrimidin-5-yl)piperidin-1-yl)prop-2-en-1-one], the GI50 (HCC827 cells) was under 50 nM, the GI50 [1] was under 50 nM and the GI50 [2] was under 50 nM.

`C=CC(=O)N1CCC(c2c[nH]c3ncnc(Nc4ccc(Oc5ccnc(N6CC7CC7C6)c5)cc4F)c23)CC1` (stereo not drawn) [Compound 131, 1-(4-(4-((4-((2-(3-azabicyclo[3.1.0]hexan-3-yl)pyridin-4-yl)oxy)-2-fluorophenyl)amino)-7H-pyrrolo[2,3-d]pyrimidin-5-yl)piperidin-1-yl)prop-2-en-1-one] was tested, and the GI50 (HCC827 cells) was over 1000 nM, the GI50 [1] was 50 to 200 nM and the GI50 [2] was 50 to 200 nM.

`C=CC(=O)N1CCC(c2c[nH]c3ncnc(Nc4ccc(Oc5ccnc(N(C)C6CC(F)(F)C6)c5)cc4F)c23)CC1` [Compound 132, 1-(4-(4-((4-((2-((3,3-difluorocycloButyl)(methyl)amino)pyridin-4-yl)oxy)-2-fluorophenyl)amino)-7H-pyrrolo[2,3-d]pyrimidin-5-yl)piperidin-1-yl)prop-2-en-1-one] gave a GI50 (HCC827 cells) of over 1000 nM, a GI50 [1] of 200 to 1000 nM and a GI50 [2] of 50 to 200 nM.

Work on `C=CC(=O)N1CCC(c2c[nH]c3ncnc(Nc4ccc(Oc5ccnc(-n6ccc(C(C)C)n6)c5)cc4F)c23)CC1` [Compound 133, 1-(4-(4-((2-fluoro-4-((2-(3-isopropyl-1H-pyrazol-1-yl)pyridin-4-yl)oxy)phenyl)amino)-7H-pyrrolo[2,3-d]pyrimidin-5-yl)piperidin-1-yl)prop-2-en-1-one] yielded a GI50 (HCC827 cells) of over 1000 nM, a GI50 [1] of 50 to 200 nM and a GI50 [2] of 50 to 200 nM.

In the case of `C=CC(=O)N1CCC(c2c[nH]c3ncnc(Nc4ccc(Oc5ccn(Cc6cc(Oc7ccccc7)ccn6)n5)cc4F)c23)CC1` [Compound 151, 1-(4-(4-((2-fluoro-4-((1-((4-phenoxypyridin-2-yl)methyl)-1H-pyrazol-3-yl)oxy)phenyl)amino)-7H-pyrrolo[2,3-d]pyrimidin-5-yl)piperidin-1-yl)prop-2-en-1-one], the GI50 (HCC827 cells) is reported as over 1000 nM, the GI50 [1] is reported as 200 to 1000 nM and the GI50 [2] is reported as 50 to 200 nM.

`C=CC(=O)N1CCC(c2n[nH]c3ncnc(Nc4ccc(Oc5ccc(-c6cc(-c7ccccc7)[nH]c(=O)c6)nc5)c(Cl)c4F)c23)CC1` [Compound 170, 5-(4-((3-(1-acryloylpiperidin-4-yl)-1H-pyrazolo[3,4-d]pyrimidin-4-yl)amino)-2-chloro-3-fluorophenoxy)-6′-phenyl-[2,4′-bipyridin]-2′(1′H)-one] gave a GI50 (HCC827 cells) of 200 to 1000 nM, a GI50 [1] of 50 to 200 nM and a GI50 [2] of 50 to 200 nM.

Molecule `C=CC(=O)N1CCC(c2n[nH]c3ncnc(Nc4ccc(Oc5nc(-c6ccc(OC)nc6)cs5)cc4F)c23)CC1` [Compound 189, 1-(4-(4-((2-fluoro-4-((4-(6-methoxypyridin-3-yl)thiazol-2-yl)oxy)phenyl)amino)-1H-pyrazolo[3,4-d]pyrimidin-3-yl)piperidin-1-yl)prop-2-en-1-one] has a GI50 (HCC827 cells) of over 1000 nM, a GI50 [1] of 200 to 1000 nM and a GI50 [2] of 200 to 1000 nM.

In the case of `C=CC(=O)N1CCC(c2n[nH]c3ncnc(Nc4ccc(Oc5ccnc(NC(=O)C6CCCC6)c5)cc4F)c23)CC1` [Compound 193, N-(4-(4-((3-(1-acryloylpiperidin-4-yl)-1H-pyrazolo[3,4-d]pyrimidin-4-yl)amino)-3-fluorophenoxy)pyridin-2-yl)cyclopentanecarboxamide], the GI50 (HCC827 cells) is reported as over 1000 nM, the GI50 [1] is reported as 50 to 200 nM and the GI50 [2] is reported as 50 to 200 nM.

`C=CC(=O)N1CCC(c2n[nH]c3ncnc(Nc4ccc(Oc5ccnc(NC(=O)C6CCOCC6)c5)cc4F)c23)CC1` [Compound 194, N-(4-(4-((3-(1-acryloylpiperidin-4-yl)-1H-pyrazolo[3,4-d]pyrimidin-4-yl)amino)-3-fluorophenoxy)pyridin-2-yl)tetrahydro-2H-pyran-4-carboxamide] showed a GI50 (HCC827 cells) of over 1000 nM, a GI50 [1] of 200 to 1000 nM and a GI50 [2] of 200 to 1000 nM.
